Where no end group is shown, it is not given here.
What was measured:
stable CHF patients [1] = assay: Renal function (eGFR, plasma creatinine, MAG3 clearance) with sc VSDL infusion, Example 2; assay type: in vivo, human; settings: for Plasma Creatinine % Change: given without sign, a decrease; for Plasma Creatinine: baseline 161.7 ± 58; for MAG3 Clearance % change: Post-Treatment vs Pre-Treatment
Description: (§1) A second study was conducted with a population of eighteen (18) test adult CHF patients, both male and female, in order to further evaluate the improvement in renal and cardiac function in stable CHF patients given VSDL (by sc administration) in addition to standard of care (SOC) treatment.
(§2) Participants were selected on the basis of the Inclusion and Exclusion criteria given in Example 1. […] In addition, selected patients were required to have a plasma brain natriuretic peptide (BNP) concentration of ≥100 pg/mL and a GFR ≥25 mL/min and <70 mL/min as calculated by the Cockroft Gault calculation (ie moderate renal impairment). On the other hand, the presence of acute MI (ie as indicated by ST elevation and/or elevation of Troponin-T) or evidence of MI or other high risk acute coronary syndrome within the past 6 weeks, hypotension (ie systolic blood pressure (SBP) <90 mmHg), persistent and/or uncontrolled hypertension (SBP>180 mmHg), cardiogenic shock or any other clinical condition that would contraindicate administration of an agent with potent vasodilatory effects, excluded patients from participating in the study. Participants in this study also had standard exclusion criteria that accompany pulmonary artery (SG) catheterisation.
(§3) The study was an open-label, sequential group, continuous sc infusion study conducted at a single centre. Two steady-state concentration levels (Css) of VSDL were targeted, approximately 10 ng/mL (n=2 lead-in, and n=10, cohort 1) and 20 ng/mL (n=6, cohort 2). The two lead-in patients were treated with similar dose regimens to confirm that the measured plasma concentrations were in agreement with the targeted Css. Two patients from cohort 1 and all 6 patients from cohort 2 underwent pulmonary artery Swan-Ganz (SG) catheterisation to enable haemodynamic monitoring.
(§4) VSDL prepared as described in Example 1, was administered via sc 6 or 12 hour infusion into the lower abdomen at a maximum volume rate of 350 μL/hr (ie approximately 6 μL/min). The rate of infusion of VSDL for the targeted Css level of 10 ng/mL was either 900 μg/hr (0.3 mL/hr) for 12 hrs or a bimodal infusion of 900 μg/hr for 5 hrs followed by 550 μg/hr (0.18 mL/hr) for 7 hrs. The rate of infusion of VSDL for the targeted Css level of 20 ng/mL was bimodal; 1800 μg/hr (0.20 mL/hr) for 5 hrs followed by 1100 μg/hr (0.12 mL/hr) for 7 hrs (see WO 2014/138796). For the lead-in patients, the infusions were performed at 900 μg/hr for 6 hrs.
(§5) R Studio (version 4) and GraphPad Prism (GraphPad Software, version 6) were used for all statistical analyses. Statistically significant changes from base line for all parameters were tested using with linear mixed effects model or one-way repeated measures ANOVA with Bonferroni correction. A p value of 0.05 was set for statistically significant differences. All data are reported as mean±s.d or mean (95% CI).
This change was also accompanied by a 10% decrease in plasma creatinine from 162±58 μmol/L at baseline to […] (p≤0.05) during infusion (Table 6).

stable CHF patients [2] = assay: Cardiovascular haemodynamics (Swan-Ganz catheterisation) with sc VSDL infusion, Example 2; assay type: in vivo, human; settings: for Cardiac Output, Mean / Cardiac Output, Median: baseline 4.7; for systemic vascular resistance: baseline=3076+929
Description: as §1, §2, §3, §4, §5

Sequence: EVVPPQVLSEPNEEAGAALSPLPEVPPWTGEVSPAQR [VSDL]
- Plasma Creatinine % Change (stable CHF patients [1]; >0.5-6 hs vs baseline): (8) %
- Plasma Creatinine (stable CHF patients [1]; >0.5-6 hs): 148.5 ± 60 µmol/L
- Plasma Creatinine % Change (stable CHF patients [1]; >6-12 hs vs baseline): (10) %
- Plasma Creatinine (stable CHF patients [1]; >6-12 hs): 146 ± 60 µmol/L
- eGFR and plasma creatinine in relation to plasma concentration of VSDL (stable CHF patients [1]; FIGS. 6A and B): improved with rising circulating levels of VSDL
- MAG3 Clearance, Post (Pre-Treatment) (stable CHF patients [1]; Stage 3A CKD): 14 ± 7 ml/min/1.73 m^2
- MAG3 Clearance % change (stable CHF patients [1]; Stage 3A CKD): (9) %
- MAG3 Clearance (stable CHF patients [1]; Stage 3A CKD, Post-Treatment, Pre-Treatment 148.5 ± 26): 162.5 ± 24 ml/min/1.73 m^2
- MAG3 Clearance, Post (Pre-Treatment) (stable CHF patients [1]; Stage 3B CKD): .3 ± 9 ml/min/1.73 m^2
- MAG3 Clearance % change (stable CHF patients [1]; Stage 3B CKD): (0) %
- MAG3 Clearance (stable CHF patients [1]; Stage 3B CKD, Post-Treatment, Pre-Treatment 164.5 ± 32): 164.8 ± 33 ml/min/1.73 m^2
- MAG3 Clearance, Post (Pre-Treatment) (stable CHF patients [1]; Stage 4 CKD): 17 ± 16 ml/min/1.73 m^2
- MAG3 Clearance % change (stable CHF patients [1]; Stage 4 CKD): (16) %
- MAG3 Clearance (stable CHF patients [1]; Stage 4 CKD, Post-Treatment, Pre-Treatment 106.0 ± 58): 123.3 ± 56 ml/min/1.73 m^2
- eGFR and MAG3 clearance across all classes of CKD (stable CHF patients [1]; adjuvant treatment with VSDL): numerical increases
- MAG3 Clearance, Post (Pre-Treatment) (stable CHF patients [1]; all patients): 9 ± 12 ml/min/1.73 m^2
- MAG3 Clearance % change (stable CHF patients [1]; all patients): (6) %
- MAG3 Clearance (stable CHF patients [1]; all patients, Post-Treatment, Pre-Treatment 140.3 ± 44): 148.9 ± 41 ml/min/1.73 m^2
- decrease in plasma creatinine (stable CHF patients [1]; during infusion vs baseline): 10%
- improvement in eGFR (stable CHF patients [1]; during the 12 hour infusion vs baseline): 16%
- estimated glomerular filtration rate (eGFR) (stable CHF patients [1]; during the 12 hour infusion, baseline 38±11, p≤0.05): 44±14 ml/min/1.73 m^2
- eGFR % Change (stable CHF patients [1]; eGFR 15-29 (Stage 4 CKD), >0.5-6 hs vs baseline): (23) %
- eGFR (stable CHF patients [1]; eGFR 15-29 (Stage 4 CKD), >0.5-6 hs, baseline 23.5 ± 5): 28.8 ± 10 ml/min/1.73 m^2
- eGFR (stable CHF patients [1]; eGFR 15-29 (Stage 4 CKD), >6-12 hs, baseline 23.5 ± 5): 30 ± 12 ml/min/1.73 m^2
- eGFR % Change (stable CHF patients [1]; eGFR 30 to 44 (Stage 3B CKD), >0.5-6 hs vs baseline): (12) %
- eGFR (stable CHF patients [1]; eGFR 30 to 44 (Stage 3B CKD), >0.5-6 hs, baseline 37.7 ± 4): 42.3 ± 10 ml/min/1.73 m^2
- eGFR % Change (stable CHF patients [1]; eGFR 30 to 44 (Stage 3B CKD), >6-12 hs vs baseline): (12) %
- eGFR (stable CHF patients [1]; eGFR 30 to 44 (Stage 3B CKD), >6-12 hs, baseline 37.7 ± 4): 42.3 ± 10 ml/min/1.73 m^2
- eGFR % Change (stable CHF patients [1]; eGFR 45-59 (Stage 3A CKD), >0.5-6 hs vs baseline): (8) %
- eGFR (stable CHF patients [1]; eGFR 45-59 (Stage 3A CKD), >0.5-6 hs, baseline 49.8 ± 3): 54.0 ± 4 ml/min/1.73 m^2
- eGFR % Change (stable CHF patients [1]; eGFR 45-59 (Stage 3A CKD), >6-12 hs vs baseline): (14) %
- eGFR (stable CHF patients [1]; eGFR 45-59 (Stage 3A CKD), >6-12 hs, baseline 49.8 ± 3): 56.6 ± 4 ml/min/1.73 m^2
- renal function (eGFR, MAG3 clearance, plasma creatinine), trend (stable CHF patients [1]; lead-in patients, 900 μg/hr sc for 6 hours): improved renal function
- eGFR % Change (stable CHF patients [1]; patients with eGFR 15-60, >0.5-6 hs vs baseline): (12) %
- eGFR (stable CHF patients [1]; patients with eGFR 15-60, >0.5-6 hs, baseline 37.9 ± 11): 42.6 ± 13 ml/min/1.73 m^2
- eGFR % Change (stable CHF patients [1]; patients with eGFR 15-60, >6-12 hs vs baseline): (16) %
- eGFR (stable CHF patients [1]; patients with eGFR 15-60, >6-12 hs, baseline 37.9 ± 11): 43.8 ± 14 ml/min/1.73 m^2
- MAG3 Clearance (stable CHF patients [1]; post-treatment, pre-treatment 140±44, p≤0.05): 149±41 ml/min/1.73 m^2
- Cardiac Output, Mean (stable CHF patients [2]; >0.5-6 hrs): 4.6 L/min
- Cardiac Output, Median (stable CHF patients [2]; >0.5-6 hrs): 4.2 L/min
- Cardiac Output, Mean (stable CHF patients [2]; >6-12 hrs): 4.9 L/min
- Cardiac Output, Median (stable CHF patients [2]; >6-12 hrs): 4.3 L/min
- Cardiac Output, Mean (stable CHF patients [2]; >12-24 hrs): 5.0 L/min
- Cardiac Output, Median (stable CHF patients [2]; >12-24 hrs): 4.4 L/min
- pulmonary capillary wedge pressure (stable CHF patients [2]; adjuvant VSDL treatment, limited patient numbers to date): either decreased or unchanged
- pulmonary vascular resistance (stable CHF patients [2]; infusion of VSDL): no changes
- increase in cardiac output on average above baseline (regression of cardiac output on time) (stable CHF patients [2]; t=3.16, p≤0.05, FIG. 1): 0.000472 L/min
- systemic vascular resistance (stable CHF patients [2]; ≥0.5-6 hs): 2658+676 dyn·s/cm^5
- systemic vascular resistance (stable CHF patients [2]; ≥6-12 hs): 2529+509 dyn·s/cm^5
- systemic vascular resistance (stable CHF patients [2]; ≥12-24 hs): 2485+645 dyn·s/cm^5

Source: patent US10004754B2, “ANP fragment adjuvant therapy to standard of care (SOC) diuretic treatment” (MADELEINE PHARMACEUTICALS PTY LTD, priority 2014, dated 2018)
